Measured values as given in article PMC5218480 (PLoS ONE, 2017).

System: MV-4-11 cells
Assay: Gene expression microarray analysis (Affymetrix PrimeView) and GSEA
Assay type: cell-based, human
Parameters: RFU PODN (11730768_x_at) / Fold change /veh PODN (11730768_x_at) / RFU LINC00158 (11744669_a_at) / Fold change /veh LINC00158 (11744669_a_at) / RFU DUSP10 (11751237_a_at) / Fold change /veh DUSP10 (11751237_a_at) / RFU ID3 (11757404_x_at) / Fold change /veh ID3 (11757404_x_at) / RFU PLEKHG5 (11737974_s_at) / Fold change /veh PLEKHG5 (11737974_s_at) / RFU LRRC4B (11730491_at) / Fold change /veh LRRC4B (11730491_at) / RFU GIMAP4 (11747438_a_at) / Fold change /veh GIMAP4 (11747438_a_at) / RFU KRT8 (11758183_x_at) / Fold change /veh KRT8 (11758183_x_at) / RFU CNN1 (11734310_a_at) / Fold change /veh CNN1 (11734310_a_at) / RFU VPS37D (11726825_at) / Fold change /veh VPS37D (11726825_at) / RFU C10orf10 (11716522_x_at) / Fold change /veh C10orf10 (11716522_x_at) / RFU KIR2DL2 /// KIR2DL4 /// KIR2DL5A /// KIR2DL5B /// KIR2DS1 /// KIR2DS2 /// KIR2DS3 /// KIR2DS4 /// KIR3DL3 /// KIR3DL3 /// KIR3DS1 (11738374_at) / Fold change /veh KIR2DL2 /// KIR2DL4 /// KIR2DL5A /// KIR2DL5B /// KIR2DS1 /// KIR2DS2 /// KIR2DS3 /// KIR2DS4 /// KIR3DL3 /// KIR3DL3 /// KIR3DS1 (11738374_at) / RFU C1QL1 (11718748_at) / Fold change /veh C1QL1 (11718748_at) / RFU TMPRSS4 (11747572_a_at) / Fold change /veh TMPRSS4 (11747572_a_at) / RFU HAMP (11756126_x_at) / Fold change /veh HAMP (11756126_x_at) / RFU RNFT2 (11725882_a_at) / Fold change /veh RNFT2 (11725882_a_at) / RFU NR4A2 (11747474_a_at) / Fold change /veh NR4A2 (11747474_a_at) / RFU ABCC12 (11746883_a_at) / Fold change /veh ABCC12 (11746883_a_at) / RFU TMEM136 (11760407_x_at) / Fold change /veh TMEM136 (11760407_x_at) / RFU CLDN22 /// WWC2 (11732394_at) / Fold change /veh CLDN22 /// WWC2 (11732394_at) / RFU HLA-DPB1 (11760878_x_at) / Fold change /veh HLA-DPB1 (11760878_x_at) / RFU SPINT1 (11716480_a_at) / Fold change /veh SPINT1 (11716480_a_at) / RFU GAP43 (11754022_s_at) / Fold change /veh GAP43 (11754022_s_at) / RFU A4GNT (11735810_at) / Fold change /veh A4GNT (11735810_at) / RFU PRB3 (11715151_x_at) / Fold change /veh PRB3 (11715151_x_at) / RFU TUBB4B (11761932_at) / Fold change /veh TUBB4B (11761932_at) / RFU CAPN14 (11732068_a_at) / Fold change /veh CAPN14 (11732068_a_at) / RFU TMCC2 (11721928_a_at) / Fold change /veh TMCC2 (11721928_a_at) / RFU IRGQ (11745062_a_at) / Fold change /veh IRGQ (11745062_a_at) / RFU FAM174B (11720279_a_at) / Fold change /veh FAM174B (11720279_a_at) / RFU TMPRSS4 (11748680_a_at) / Fold change /veh TMPRSS4 (11748680_a_at) / RFU FAM212B (11763350_a_at) / Fold change /veh FAM212B (11763350_a_at) / RFU PLEKHG5 (11743358_a_at) / Fold change /veh PLEKHG5 (11743358_a_at) / RFU ZSCAN30 (11745921_a_at) / Fold change /veh ZSCAN30 (11745921_a_at) / RFU CMKLR1 (11741424_a_at) / Fold change /veh CMKLR1 (11741424_a_at) / RFU LOC101060620 /// MAPK8IP1 (11723275_at) / Fold change /veh LOC101060620 /// MAPK8IP1 (11723275_at) / RFU SPTSSB (11747773_x_at) / Fold change /veh SPTSSB (11747773_x_at) / RFU PRSS12 (11739890_at) / Fold change /veh PRSS12 (11739890_at) / RFU BIN1 (11741810_x_at) / Fold change /veh BIN1 (11741810_x_at) / RFU WNT11 (11732464_a_at) / Fold change /veh WNT11 (11732464_a_at) / RFU C10orf10 (11716521_a_at) / Fold change /veh C10orf10 (11716521_a_at) / RFU C5orf56 (11738089_at) / Fold change /veh C5orf56 (11738089_at) / RFU CYB561 (11721691_x_at) / Fold change /veh CYB561 (11721691_x_at) / RFU ANKRD19P (11752326_a_at) / Fold change /veh ANKRD19P (11752326_a_at) / RFU OR2T12 /// OR2T33 /// OR2T8 (11738714_s_at) / Fold change /veh OR2T12 /// OR2T33 /// OR2T8 (11738714_s_at) / RFU VCAN (11748164_a_at) / Fold change /veh VCAN (11748164_a_at) / RFU JSRP1 (11732532_at) / Fold change /veh JSRP1 (11732532_at) / RFU KRTAP10-11 (11738290_x_at) / Fold change /veh KRTAP10-11 (11738290_x_at) / RFU MYO3A (11730013_a_at) / Fold change /veh MYO3A (11730013_a_at) / RFU EBF3 (11725865_a_at) / Fold change /veh EBF3 (11725865_a_at) / RFU CAMK2N1 (11719241_x_at) / Fold change /veh CAMK2N1 (11719241_x_at) / RFU C5orf56 (11738088_a_at) / Fold change /veh C5orf56 (11738088_a_at) / RFU OLFML3 (11715873_a_at) / Fold change /veh OLFML3 (11715873_a_at) / RFU LOC100653217 /// NTM (11731650_a_at) / Fold change /veh LOC100653217 /// NTM (11731650_a_at) / RFU MAPK11 (11762145_a_at) / Fold change /veh MAPK11 (11762145_a_at) / RFU FIZ1 (11724087_x_at) / Fold change /veh FIZ1 (11724087_x_at) / RFU OASL (11726364_x_at) / Fold change /veh OASL (11726364_x_at) / RFU SOX15 (11748057_x_at) / Fold change /veh SOX15 (11748057_x_at) / RFU CD79A (11719716_a_at) / Fold change /veh CD79A (11719716_a_at) / RFU HIST1H1D (11736915_at) / Fold change /veh HIST1H1D (11736915_at) / RFU CASKIN2 (11723855_a_at) / Fold change /veh CASKIN2 (11723855_a_at) / RFU LOC730098 (11760151_x_at) / Fold change /veh LOC730098 (11760151_x_at) / RFU OR4N2 (11742367_at) / Fold change /veh OR4N2 (11742367_at) / RFU PRRT2 (11749266_a_at) / Fold change /veh PRRT2 (11749266_a_at) / RFU SNX32 (11753110_a_at) / Fold change /veh SNX32 (11753110_a_at) / RFU CDHR5 (11726645_a_at) / Fold change /veh CDHR5 (11726645_a_at) / RFU RCAN1 (11760418_a_at) / Fold change /veh RCAN1 (11760418_a_at) / RFU FAM167A (11723789_a_at) / Fold change /veh FAM167A (11723789_a_at) / RFU FAM26E (11764081_at) / Fold change /veh FAM26E (11764081_at) / RFU ISYNA1 (11749810_s_at) / Fold change /veh ISYNA1 (11749810_s_at) / RFU ACY1 (11761880_at) / Fold change /veh ACY1 (11761880_at) / RFU 11764098_at / Fold change /veh 11764098_at / RFU SAMD14 (11745864_x_at) / Fold change /veh SAMD14 (11745864_x_at) / RFU NPB (11741838_a_at) / Fold change /veh NPB (11741838_a_at) / RFU TMPRSS6 (11731388_a_at) / Fold change /veh TMPRSS6 (11731388_a_at) / RFU KRTAP10-2 (11738614_at) / Fold change /veh KRTAP10-2 (11738614_at) / RFU ARHGAP8 /// PRR5-ARHGAP8 (11727945_x_at) / Fold change /veh ARHGAP8 /// PRR5-ARHGAP8 (11727945_x_at) / RFU KRTAP5-7 /// NADSYN1 (11734609_at) / Fold change /veh KRTAP5-7 /// NADSYN1 (11734609_at) / RFU RASL12 (11751679_a_at) / Fold change /veh RASL12 (11751679_a_at) / RFU CDKN2B (11736163_a_at) / Fold change /veh CDKN2B (11736163_a_at) / RFU PRF1 (11729649_at) / Fold change /veh PRF1 (11729649_at) / RFU, ZNF638 /// ZNF638-IT1 / Fold change vs veh, ZNF638 /// ZNF638-IT1 / RFU, PANK3 / Fold change vs veh, PANK3 / RFU, SH3YL1 / Fold change vs veh, SH3YL1 / RFU, ZEB2 / Fold change vs veh, ZEB2 / RFU, NRIP1 / Fold change vs veh, NRIP1 / RFU, PTTG1IP / Fold change vs veh, PTTG1IP / RFU, CAPN2 / Fold change vs veh, CAPN2 / RFU, MED14 / Fold change vs veh, MED14 / RFU, SNORA58 / Fold change vs veh, SNORA58 / RFU, C1orf63 / Fold change vs veh, C1orf63 / RFU, LRRFIP1 / Fold change vs veh, LRRFIP1 / RFU, NDUFAF7 / Fold change vs veh, NDUFAF7 / RFU, SLC12A2 / Fold change vs veh, SLC12A2 / RFU, IBTK / Fold change vs veh, IBTK / RFU, ESF1 / Fold change vs veh, ESF1 / Fold change vs veh, TMEM50B / RFU, TAOK1 / Fold change vs veh, TAOK1 / RFU, ACBD3 / Fold change vs veh, ACBD3 / RFU, TMA16 / Fold change vs veh, TMA16 / RFU, RWDD3 / Fold change vs veh, RWDD3 / RFU, BCAT1 / Fold change vs veh, BCAT1 / RFU, EDEM3 / Fold change vs veh, EDEM3 / RFU, TMEM33 / Fold change vs veh, TMEM33 / RFU, WDR75 / Fold change vs veh, WDR75 / RFU, AHCTF1 / Fold change vs veh, AHCTF1 / RFU, TFRC / Fold change vs veh, TFRC / RFU, ZDHHC17 / Fold change vs veh, ZDHHC17 / RFU, NOM1 / Fold change vs veh, NOM1 / RFU, ARL8B / Fold change vs veh, ARL8B / RFU, ZBTB11 / Fold change vs veh, ZBTB11 / RFU, TAMM41 / Fold change vs veh, TAMM41 / RFU, KIAA1704 /// LOC100996395 / Fold change vs veh, KIAA1704 /// LOC100996395 / RFU, ING1 / Fold change vs veh, ING1 / RFU, TRMT61B / Fold change vs veh, TRMT61B / RFU, FUBP3 / Fold change vs veh, FUBP3 / RFU, TP53 / Fold change vs veh, TP53 / RFU, TNKS2 / Fold change vs veh, TNKS2 / RFU, ZFP14 / Fold change vs veh, ZFP14 / RFU, ACTR2 / Fold change vs veh, ACTR2 / RFU, PPP3R1 / Fold change vs veh, PPP3R1 / RFU, PIK3R1 / Fold change vs veh, PIK3R1 / RFU, HNRNPA1 / Fold change vs veh, HNRNPA1 / RFU, RNF170 / Fold change vs veh, RNF170 / RFU, ZNF28 / Fold change vs veh, ZNF28 / RFU, RNGTT / Fold change vs veh, RNGTT / RFU, OGT / Fold change vs veh, OGT / RFU, BRD1 / Fold change vs veh, BRD1 / RFU, MARS / Fold change vs veh, MARS / RFU, ZNF655 / Fold change vs veh, ZNF655 / RFU, FAHD1 / Fold change vs veh, FAHD1 / RFU, BDP1 / Fold change vs veh, BDP1 / RFU, LRRCC1 / Fold change vs veh, LRRCC1 / RFU, ARID1A / Fold change vs veh, ARID1A / RFU, ZNF146 / Fold change vs veh, ZNF146 / RFU, ZNF330 / Fold change vs veh, ZNF330 / RFU, GPN3 / Fold change vs veh, GPN3 / RFU, C9orf123 / Fold change vs veh, C9orf123 / RFU, N4BP2L2 / Fold change vs veh, N4BP2L2 / RFU, ARFIP1 / Fold change vs veh, ARFIP1 / RFU, FAM179B / Fold change vs veh, FAM179B / RFU, BCL10 / Fold change vs veh, BCL10 / RFU, UHRF1BP1L / Fold change vs veh, UHRF1BP1L / RFU, BET1 / Fold change vs veh, BET1 / RFU, CNOT2 / Fold change vs veh, CNOT2 / RFU, ZNF268 / Fold change vs veh, ZNF268 / Fold change vs veh, ZNF507 / RFU, DGCR2 / Fold change vs veh, DGCR2 / RFU, WDSUB1 / Fold change vs veh, WDSUB1 / Fold change vs veh, HSP90B1 /// MIR3652 / RFU, ADSS / Fold change vs veh, ADSS / RFU, GK / Fold change vs veh, GK / RFU, ZNF148 / Fold change vs veh, ZNF148 / RFU, TAF9 / Fold change vs veh, TAF9 / RFU, SLC1A5 / Fold change vs veh, SLC1A5 / RFU, SLMO2 / Fold change vs veh, SLMO2 / RFU, ABCC4 / Fold change vs veh, ABCC4 / RFU, LOC101060439 /// RAP1B / Fold change vs veh, LOC101060439 /// RAP1B / RFU, RFX7 / Fold change vs veh, RFX7 / RFU, GTPBP10 / Fold change vs veh, GTPBP10 / RFU, CNEP1R1 / Fold change vs veh, CNEP1R1 / RFU, BIVM-ERCC5 /// ERCC5 / Fold change vs veh, BIVM-ERCC5 /// ERCC5 / RFU, ILF3 / Fold change vs veh, ILF3 / RFU 11762660_at / Fold change /veh 11762660_at / RFU VCAN (11757783_s_at) / Fold change /veh VCAN (11757783_s_at) / RFU DDX43 (11728927_at) / Fold change /veh DDX43 (11728927_at) / RFU KRT8 (11758188_x_at) / Fold change /veh KRT8 (11758188_x_at) / RFU NKD1 (11759106_at) / Fold change /veh NKD1 (11759106_at) / RFU SRD5A1 (11742802_a_at) / Fold change /veh SRD5A1 (11742802_a_at) / RFU TPSAB1 /// TPSB2 (11721975_s_at) / Fold change /veh TPSAB1 /// TPSB2 (11721975_s_at) / RFU GSTM3 (11746129_a_at) / Fold change /veh GSTM3 (11746129_a_at) / RFU IL23R (11737362_x_at) / Fold change /veh IL23R (11737362_x_at) / RFU TMEM51 (11727254_a_at) / Fold change /veh TMEM51 (11727254_a_at) / RFU PIWIL2 (11732686_x_at) / Fold change /veh PIWIL2 (11732686_x_at) / RFU ORM1 (11744905_x_at) / Fold change /veh ORM1 (11744905_x_at) / RFU CCDC152 (11743942_at) / Fold change /veh CCDC152 (11743942_at) / RFU ECM1 (11717891_a_at) / Fold change /veh ECM1 (11717891_a_at) / RFU IL23R (11748794_a_at) / Fold change /veh IL23R (11748794_a_at) / RFU TNFAIP8L3 (11732012_x_at) / Fold change /veh TNFAIP8L3 (11732012_x_at) / RFU MBOAT4 (11741988_at) / Fold change /veh MBOAT4 (11741988_at) / RFU 11764193_at / Fold change /veh 11764193_at / RFU TMEM53 (11763286_at) / Fold change /veh TMEM53 (11763286_at) / RFU MAGEB2 (11727129_at) / Fold change /veh MAGEB2 (11727129_at) / RFU TMEM200A (11744735_a_at) / Fold change /veh TMEM200A (11744735_a_at) / RFU CCDC152 (11751479_a_at) / Fold change /veh CCDC152 (11751479_a_at) / RFU FAM211A (11726209_a_at) / Fold change /veh FAM211A (11726209_a_at) / RFU RGS16 (11746705_a_at) / Fold change /veh RGS16 (11746705_a_at) / RFU VCAN (11755009_s_at) / Fold change /veh VCAN (11755009_s_at) / RFU RHOB (11743442_s_at) / Fold change /veh RHOB (11743442_s_at) / RFU RGS16 (11720943_a_at) / Fold change /veh RGS16 (11720943_a_at) / RFU RGS16 (11720944_at) / Fold change /veh RGS16 (11720944_at) / RFU, VPS4B / Fold change vs veh, VPS4B / RFU, CREB1 / Fold change vs veh, CREB1 / RFU, DNAJC13 / Fold change vs veh, DNAJC13 / RFU, GNAQ / Fold change vs veh, GNAQ / RFU, CDK5R1 / Fold change vs veh, CDK5R1 / RFU, ZRANB3 / Fold change vs veh, ZRANB3 / RFU, CUL4A / Fold change vs veh, CUL4A / RFU, CCNY / Fold change vs veh, CCNY / RFU, UFL1 / Fold change vs veh, UFL1 / RFU, COG3 / Fold change vs veh, COG3 / RFU, DIAPH2 / Fold change vs veh, DIAPH2 / RFU, SKA2 / Fold change vs veh, SKA2 / RFU, AFF3 / Fold change vs veh, AFF3 / RFU, LMF1 / Fold change vs veh, LMF1 / RFU, IPO11 / Fold change vs veh, IPO11 / RFU, DFFB / Fold change vs veh, DFFB / RFU, FOXP1 / Fold change vs veh, FOXP1 / RFU, CARD8 / Fold change vs veh, CARD8 / RFU, STRN3 / Fold change vs veh, STRN3 / RFU, ADK / Fold change vs veh, ADK / RFU, RASSF2 / Fold change vs veh, RASSF2 / RFU, WIPF1 / Fold change vs veh, WIPF1 / RFU, LARP1B / Fold change vs veh, LARP1B / RFU, RASA1 / Fold change vs veh, RASA1 / RFU, RB1 / Fold change vs veh, RB1 / RFU, PPFIA1 / Fold change vs veh, PPFIA1 / RFU, MAT2A / Fold change vs veh, MAT2A / RFU, CCT5 / Fold change vs veh, CCT5 / RFU, WDR92 / Fold change vs veh, WDR92 / RFU, CUX1 / Fold change vs veh, CUX1 / RFU, TTC7A / Fold change vs veh, TTC7A / RFU, TMEM135 / Fold change vs veh, TMEM135 / RFU, DEPTOR / Fold change vs veh, DEPTOR / RFU, CPM / Fold change vs veh, CPM / RFU, DNAJB6 / Fold change vs veh, DNAJB6 / RFU, CACNA2D3 / Fold change vs veh, CACNA2D3 / RFU, DTX4 / Fold change vs veh, DTX4 / RFU, TFCP2 / Fold change vs veh, TFCP2 / RFU, GMCL1 /// GMCL1P1 / Fold change vs veh, GMCL1 /// GMCL1P1 / RFU, AEBP2 / Fold change vs veh, AEBP2 / RFU, SNHG1 /// SNORD22 /// SNORD25 /// SNORD26 /// SNORD27 /// SNORD28 /// SNORD29 /// SNORD31 / Fold change vs veh, SNHG1 /// SNORD22 /// SNORD25 /// SNORD26 /// SNORD27 /// SNORD28 /// SNORD29 /// SNORD31 / Fold change (Aza/veh), C12orf56 (ProbeSet 11735607_a_at) / Fold change (ACY-1035/veh), C12orf56 (ProbeSet 11735607_a_at) / Fold change (Aza/veh), FGFR1OP (ProbeSet 11751329_s_at) / Fold change (ACY-1035/veh), FGFR1OP (ProbeSet 11751329_s_at) / Fold change (Aza/veh), VPS36 (ProbeSet 11739960_a_at) / Fold change (ACY-1035/veh), VPS36 (ProbeSet 11739960_a_at) / RFU SYPL1 (11715823_x_at) / Fold change /veh SYPL1 (11715823_x_at) / RFU IGFBP7 (11715501_s_at) / Fold change /veh IGFBP7 (11715501_s_at) / RFU REEP3 (11722064_at) / Fold change /veh REEP3 (11722064_at) / RFU IGLL1 (11728026_x_at) / Fold change /veh IGLL1 (11728026_x_at): dose or concentration left out as unconfirmed
Conditions: MV-4-11 cells, 48 hours

Nc1ncn([C@@H]2O[C@H](CO)[C@@H](O)[C@H]2O)c(=O)n1 [azacitidine]
Fold change /veh ORM1 (11744905_x_at): 1.26
